# Experimental data taken from US11161989B2, “Near-infrared absorbing composition, optical structure, and camera module and electronic device comprising the same” (priority 2018, dated 2021).
# Columns and labels:
# [1] = Solubility of the copper complex in an organic solvent; type: physicochemical; details: organic solvent THF
# Method: In Table 1, the “solubility” is evaluated as °, when greater than or equal to 50 wt % of a copper complex based on 100 wt % of an entire composition is dissolved in a corresponding organic solvent, and as X, when less than 50 wt % of a copper complex based on 100 wt % of an entire composition is dissolved in a corresponding organic solvent, and “ANIR” is measured under a THF concentration condition of 10 mg/m L.
# In Table 2, “solubility” uses the same reference as Table 1.
# [2] = Wavelength vs. absorbance of near-infrared absorbing compositions (UV-Vis spectrophotometer); type: physicochemical; details: for A430-565 (average absorbance in a visible light wavelength region) / λNIR (maximum absorption wavelength): 10 mg/mL in THF; for ANIR (maximum absorbance): THF concentration condition of 10 mg/mL; for Absorption area of near-infrared wavelength region: curve integrated from 700 nm to 1100 nm; for Absorption area of near-infrared wavelength region / Cut-off wavelength: composition in THF; for Cut-off wavelength: wavelength of 50% light transmittance after normalizing maximum absorbance to 1
# Description: In Table 3, the “absorption area of a near-infrared wavelength region” is an area obtained by integrating each curve in a wavelength range from 700 nm to 1100 nm in FIG. 7, and the “cut-off wavelength” is a wavelength where each curve has light transmittance of 50% after normalizing absorbance corresponding to a y-axis of FIG. 7 to have a maximum absorbance of 1 and then, converting the normalized absorbance (An) into light transmittance (T) to satisfy Equation 1. T (%)=10^(2-An).
Absorption area of near-infrared wavelength region [2],Cut-off wavelength [2] [nm],SMILES,Solubility [1],A430-565 (average absorbance in a visible light wavelength region) [2],λNIR (maximum absorption wavelength) [2] [nm],ANIR (maximum absorbance) [2]
328,636,"O=C([O][Cu][O]C(=O)C(F)(F)F)C(F)(F)F [Comparative Example 1, reference compound]",∘,0.020,771,1.05
144,740,"C=C(C)C(=O)OCCOP(=O)(O)[O][Cu][O]P(=O)(O)OCCOC(=O)C(=C)C [Comparative Example 2, reference compound]",∘,0.001,826,0.42
–,–,CCOP(=O)(O)[O][Cu][O]C(=O)C(F)(F)F [Example 2],∘,0.013,794,1.16
–,–,CC(C)OP(=O)(O)[O][Cu][O]C(=O)C(F)(F)F [Example 3],∘,0.008,794,1.04
–,–,O=C([O][Cu][O]P(=O)(Oc1ccccc1)Oc1ccccc1)C(F)(F)F [Example 4],∘,0.005,814,0.85
–,–,C=C(C)C(=O)OCCOP(=O)(O)[O][Cu][O]C(=O)C(F)(F)F [Example 5],∘,0.010,814,0.66
234,676,Cc1ccc(S(=O)(=O)[O][Cu][O]C(=O)C(F)(F)F)cc1 [Example 6],∘,0.006,825,0.70
